Laboratory results as given in patent publication US6326372A, “Lactam and cyclic urea derivatives useful as alpha 1a adrenoceptor antagonists” (Merck & Co., Inc., priority 2000, dated 2001).
Structures can show the parent of a compound that is named as a salt.

Test system: alpha 1a receptors versus alpha 1b and alpha 1d receptors
Assay: Selective Binding Assays: binding to alpha 1a versus alpha 1b and alpha 1d receptors ([125I]-HEAT competition binding)
Parameters: species or system human
Conditions: alpha 1a versus both alpha 1b and alpha 1d; at least about
Method: Membranes prepared from the stably transfected human alpha 1a cell line (ATCC CRL 11140) were used to identify compounds that bind to the human alpha 1a adrenergic receptor. These competition binding reactions (total volume=200 μl) contained 50 mM Tris-HCl pH. 7.4, 5 mM EDTA, 150 mM NaCl, 100 pM [^125 I]-HEAT, membranes prepared from the alpha 1a cell line and increasing amounts of unlabeled ligand. Reactions were incubated at room temperature for one hour with shaking. Reactions were filtered onto Whatman GF/C glass fiber filters with a Inotec 96 well cell harvester. Filters were washed three times with ice cold buffer and bound radioactivity was determined (Ki).
Membranes prepared from stably transfected human alpha 1d and alpha 1b cell lines (ATCC CRL 11138 and CRL 11139, respectively) were used to identify compounds that selectively bind to the human alpha 1a adrenergic receptor. These competition binding reactions (total volume=200 μl) contained 50 mM Tris-HCl pH. 7.4, 5 mM EDTA, 150 mM NaCl, 100 pM [^125 I]-HEAT, membranes prepared from cell lines transfected with the respective alpha 1 subtype expression plasmid and increasing amounts of unlabeled ligand. Reactions were incubated at room temperature for one hour with shaking. Reactions were filtered onto Whatman GF/C glass fiber filters with a Inotec 96 well cell harvester. Filters were washed three times with ice cold buffer and bound radioactivity was determined (Ki).

Row | SMILES | fold more selective in binding to alpha 1a receptors versus binding to the alpha 1b and alpha 1d receptors
1 | O=C1CCCC(c2ccc(F)c(F)c2)N1C(=O)NCCCN1CCC(c2ccccn2)CC1 (single isomer, unassigned) [Example 8, Dihydrochloride] | at least 10 fold
2 | N#Cc1cc(F)ccc1C1CCN(CCCNC(=O)N2C(=O)CCCC2c2ccc(F)c(F)c2)CC1 (single isomer, unassigned) [Example 9, hydrochloride] | at least 10 fold
3 | O=C1CCCC(c2ccc(F)c(F)c2)N1C(=O)N[C@@H]1CCN([C@H]2CC[C@H](c3ccccn3)CC2)C1 (single isomer, unassigned) [Example 10 (Enantiomer A), Dihydrochloride] | at least 10 fold
4 | C[C@H](c1ccccc1)N1CCC(c2ccc(F)c(F)c2)N(C(=O)NCCCN2CCC(c3ccc(F)cc3)CC2)C1=O (single isomer, unassigned) [Example 14 (Step 8, Diastereomer A), Hydrochloride] | at least 10 fold
5 | O=C(NCCCN1CCC(c2ccc(F)cc2)CC1)N1C(=O)NCCC1c1ccc(F)c(F)c1 (single isomer, unassigned) [Example 14 (Step 9, Enantiomer A), Hydrochloride] | at least 10 fold
6 | C[C@H](c1ccccc1)N1CC(C)(C)C(c2ccc(F)c(F)c2)N(C(=O)NCCCN2CCC(c3ccc(F)cc3)CC2)C1=O (single isomer, unassigned) [Example 18 (Step 2, Diastereomer A)] | at least 10 fold
7 | CC1(C)CNC(=O)N(C(=O)NCCCN2CCC(c3ccc(F)cc3)CC2)C1c1ccc(F)c(F)c1 (single isomer, unassigned) [Example 18 (Step 3, Enantiomer A), Hydrochloride] | at least 10 fold
8 | CC1(C)CNC(=O)N(C(=O)NCCCN2CCC(c3ccc(F)cc3)CC2)C1c1ccc(F)c(F)c1 (single isomer, unassigned) [Example 18 (Step 3, Enantiomer B), Hydrochloride] | at least 10 fold
9 | O=C(NCCCN1CCC(c2ccc(F)cc2)CC1)N1C(=O)NCC2(CCCCC2)C1c1ccc(F)c(F)c1 (single isomer, unassigned) [Example 20 (Isomer B), (4'R)- and (4'S)-Spirocyclohexane-[1,5']-{4-(3,4-difluorophenyl)-3-[(4'-(4-fluorophenyl)piperidin-1'-yl)propyl]aminocarbonyl}tetrahydropyrimidin-2-one Hydrochloride] | at least 10 fold
10 | CC1CNC(=O)N(C(=O)NCCCN2CCC(c3ccc(F)cc3)CC2)C1c1ccc(F)c(F)c1 (single isomer, unassigned) [Example 22 (Isomer B), Hydrochloride] | at least 10 fold
11 | CC1CNC(=O)N(C(=O)NCCCN2CCC(c3ccc(F)cc3)CC2)C1c1ccc(F)c(F)c1 (single isomer, unassigned) [Example 22 (Isomer C), Hydrochloride] | at least 10 fold
12 | C[C@H](c1ccccc1)N1CCC(c2ccc(F)c(F)c2)N(C(=O)NCCCN2CCC(c3ccccn3)CC2)C1=O (stereo partly drawn) [Example 15 (Table 1, entry 1), 4-(3,4-difluorophenyl)-1-((R)-α-methylbenzyl)-3-[(4'-(2-pyridyl)piperidin-1'-yl)propyl]aminocarbonyltetrahydropyrimidin-2-one] | at least 10 fold
13 | C[C@H](c1ccccc1)N1CCC(c2ccc(F)c(F)c2)N(C(=O)NCCCN2CCC(c3ccccc3C#N)CC2)C1=O (stereo partly drawn) [Example 15 (Table 1, entry 2), 4-(3,4-difluorophenyl)-1-((R)-α-methylbenzyl)-3-[(4'-(2-cyanophenyl)piperidin-1'-yl)propyl]aminocarbonyltetrahydro-pyrimidin-2-one] | at least 10 fold
14 | COc1cc(F)ccc1[C@H]1CC[C@H](N2CC[C@@H](NC(=O)N3C(=O)N([C@H](C)c4ccccc4)CCC3c3ccc(F)c(F)c3)C2)CC1 (stereo partly drawn) [Example 15 (Table 1, entry 5), 3-[[3(R)-1-[trans-4-(2-methoxy-4-fluorophenyl)cyclohexyl]pyrrolidin-3-yl]-aminocarbonyl]-1-((R)-α-methylbenzyl)-4-(3,4-difluorophenyl)pyrimidin-2-one] | at least 10 fold
15 | CN1CCC(c2ccc(F)c(F)c2)N(C(=O)NCCCN2CCC(c3ccc(F)cc3)CC2)C1=O (stereo not shown) [Example 17, 4-(3,4-Difluorophenyl)-1-methyl-3-[(4'-(4-fluorophenyl)piperidin-1'-yl)propyl]aaminocarbonyltetrahydropyrimidin-2-one Hydrochloride] | at least 10 fold
16 | CC1(C)CN(Cc2ccccc2)C(=O)N(C(=O)NCCCN2CCC(c3ccc(F)cc3)CC2)C1c1ccc(F)c(F)c1 [Example 19, (4R)- and (4S)-4-(3,4-Difluorophenyl)-5,5-dimethyl-1-benzyl-3-[(4'-(4-fluorophenyl)piperidin-1'-yl)propyl]aminocarbonyltetrahydropyrimidin-2-one Hydrochloride] | at least 10 fold
